# Experiment: Solubility / dissolution in water and solid form stability of caspofungin propionate
# Type: physicochemical
SMILES,time to dissolve (533.5 mg crystalline salt in 5 ml aqueous mannitol 40 mg/ml / sucrose 60 mg/ml) [min],solubility in water,stability of solid form (crystalline versus amorphous form)
"CCC(C)CC(C)CCCCCCCCC(=O)N[C@H]1C[C@@H](O)[C@@H](NCCN)NC(=O)[C@@H]2[C@@H](O)CCN2C(=O)[C@H]([C@H](O)CCN)NC(=O)[C@H]([C@H](O)[C@@H](O)c2ccc(O)cc2)NC(=O)[C@@H]2C[C@@H](O)CN2C(=O)[C@H]([C@@H](C)O)NC1=O (stereo partly drawn) [Caspofungin dipropionate, caspofungin dipropionate]",≤ 3,–,–
"CCC(C)CC(C)CCCCCCCCC(=O)N[C@H]1C[C@@H](O)[C@@H](NCCN)NC(=O)[C@@H]2[C@@H](O)CCN2C(=O)[C@H]([C@H](O)CCN)NC(=O)[C@H]([C@H](O)[C@@H](O)c2ccc(O)cc2)NC(=O)[C@@H]2C[C@@H](O)CN2C(=O)[C@H]([C@@H](C)O)NC1=O (stereo partly drawn) [Crystalline caspofungin propionate, caspofungin propionate]",–,freely soluble in water,more stable than the amorphous form

# — patent publication US8232245B2, “Caspofungin formulations” (Sandoz AG, priority 2006, dated 2012)
